Test results as given in US20020028938A1, “Prostaglandin endoperoxide H synthase biosynthesis inhibitors” (priority 1997, published 2002).
Where “and” joins values, the source holds several entries; their conditions need not be identical. Identical values can stand only once.

Tests used:
[1] = system: air pouch prostaglandin biosynthesis (Cox-2); experiment: Carrageenan induced air pouch prostaglandin biosynthesis model (CAP); type: in vivo, rat; details: 3 mpk, rat; for inhibition in vivo at 3 mg/kg: 4 h, read-out: CAP % Inhib. @ 3 mpk
Summary of the method: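 Male Sprague Dawley rats with dorsal air pouches (20 mL air day 0, 10 mL day 3) received 0.2% lambda carrageenan in saline into the pouch on day 7. Compounds dosed at 0.1 to 10 mg/kg 30 min before carrageenan; pouch lavaged 4 h later, prostaglandins measured by EIA. Percent inhibition versus control mean; ED50 by linear regression.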

[2] = system: carrageenan induced paw edema; experiment: Carrageenan induced paw edema (CPE) in rats; type: in vivo; details: rat; for inhibition in vivo at 10 mg/kg / CPE % Inhib. @ 10 mpk: 10 mpk oral, 3 hours after carrageenan; for inhibition in vivo at 10 mg/kg: read-out: CPE % Inhib. @ 10 mpk
Protocol: (§1) For oral administration, test compounds were suspended on the day of use in 100% polyethyleneglycol (PEG 400) with a motorized homogenizer equipped with a Teflon-coated pestle (TRI-R Instrument, Jamaica, N.Y.).
(§2) To compare the mean responses of the treatment groups, analysis of variance was applied. Percent inhibition values were determined by comparing the individual treatment mean values to the mean of the control group. Linear regression was used to estimate IC50's/ED50's in appropriate assays.
Hingpaw edema was […] in male rats as described by Winter et al., Proc. Soc. Exp. Biol. Med., 1962, 111, 544. Briefly, male Sprague-Dawley rats weighing between 170 and 190 g were administered test compounds orally 1 hour prior to the subplantar injection of 0.1 ml of 1% sodium carrageenan (lambda carrageenan, Sigma Chemical Co., St Louis, Mo.) into the right hindpaw. Right paw volumes (ml) were measured immediately following injection of carrageenan for baseline volume measurements using a Buxco plethysmograph (Buxco Electronics, Inc., Troy, N.Y.). Three hours after the injection of carrageenan, right paws were remeasured and paw edema calculated for each rat by subtracting the zero time reading from the 3 hour reading. Data are reported as mean percent inhibition +/−SEM. Statistical significance of results was analyzed by Dunnetts multiple comparison test where p<0.05 was considered statistically significant.

[3] = system: prostaglandin biosynthesis in vivo (pleural lavage eicosanoids); experiment: Rat carrageenan pleural inflammation (CIP) model; details: 10 mpk oral; for inhibition in vivo at 10 mg/kg: 4 h, read-out: CIP % Inhib. @ 10 mpk
Protocol: as §1, §2
Pleural inflammation was induced in male adrenalectomized Sprague-Dawley rats following the method of Vinegar et al., Fed. Proc. 1976, 35, 2447-2456. Animals were orally dosed with experimental compounds, 30 minutes prior to the intrapleural injection of 2% lambda carrageenan (Sigma Chemical Co., St. Louis Mo.). Four hours later the animals were euthanized and the pleural cavities lavaged with ice cold saline. The lavage fluid was then added to two volumes of ice cold methanol (final methanol concentration 66%) to lyse cells and precipitate protein. Eicosanoids were determined by EIA as described above.

[4] = target: T1, recombinant human Cox-1 (r-hu Cox1) (Homo sapiens, UniProt P23219); experiment: Recombinant human PGHS-1 enzyme assay (RHUCX1); type: biochemical
T1 construct: made in house; host or cells: baculovirus/Sf9 insect cells (microsomes)
Summary of the method: (§3)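 Recombinant enzyme reaction ran 2.5 minutes at room temperature, then was quenched with HCl and neutralized with NaOH. PGE2 formed with and without drug was quantified by EIA against standards in the same milieu. Percent inhibition versus control mean; IC50 by linear regression.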

[5] = target: T2, recombinant human Cox-2 (r-hu Cox-2) (Homo sapiens, UniProt P35354); experiment: Recombinant human PGHS-2 enzyme assay (RHUCX2); type: biochemical; details: for IC50: read-out: RHUCX2 IC50 (parenthetical value)
T2 construct: made in house; host or cells: baculovirus/Sf9 insect cells (microsomes)
T2 sequence (P35354 18-604): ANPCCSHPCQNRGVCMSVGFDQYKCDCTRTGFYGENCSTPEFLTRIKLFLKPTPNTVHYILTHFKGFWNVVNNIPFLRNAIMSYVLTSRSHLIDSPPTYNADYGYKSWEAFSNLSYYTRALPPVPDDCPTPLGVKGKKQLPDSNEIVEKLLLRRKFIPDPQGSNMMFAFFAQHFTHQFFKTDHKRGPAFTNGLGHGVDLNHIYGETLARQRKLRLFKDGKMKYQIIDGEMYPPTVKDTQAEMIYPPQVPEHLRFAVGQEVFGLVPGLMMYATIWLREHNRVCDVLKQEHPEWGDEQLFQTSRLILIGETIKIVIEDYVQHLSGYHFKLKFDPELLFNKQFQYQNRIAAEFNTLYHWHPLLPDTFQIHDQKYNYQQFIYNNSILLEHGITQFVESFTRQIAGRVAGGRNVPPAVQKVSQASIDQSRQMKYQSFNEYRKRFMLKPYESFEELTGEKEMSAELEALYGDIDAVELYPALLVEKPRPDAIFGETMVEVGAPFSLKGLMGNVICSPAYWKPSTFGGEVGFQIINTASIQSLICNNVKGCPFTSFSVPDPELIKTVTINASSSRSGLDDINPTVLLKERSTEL
Summary of the method: as §3

[6] = target: T3, Human Whole Platelet Cyclooxygenase-1 (Homo sapiens, UniProt P23219); experiment: Human Whole Platelet Cyclooxygenase-1 assay (HWPX); type: cell-based; details: for IC50: read-out: HWPX IC50 (parenthetical value)
T3 construct: from tissue; host or cells: human blood: isolated platelets (A4) or heparinised whole blood (A9)
Summary of the method: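 Washed platelets from healthy-donor ACD blood were pre-incubated with compound for 10 min, then stimulated with calcium ionophore A23187 (8.8 μM final) for 10 min. Reaction stopped with cold 6 mM EDTA; thromboxane in supernatants quantified with a commercial kit.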

[7] = target: T4, human amnionic whole cell cyclooxygenase-2 (WISH cells) (Homo sapiens, UniProt P35354); experiment: IL-1β induced PGE2 production in WISH cells; type: cell-based; details: read-out: Wish IC50 (parenthetical value)
T4 construct: endogenous in cells; host or cells: human amnionic WISH cells, induced with IL-1beta
T4 sequence (P35354 18-604): T2 sequence (P35354 18-604)
Summary of the method: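 Confluent (80%) WISH cells were stimulated with 5 ng/ml IL-1β in serum-free Neuman-Tytell medium, with or without test compound in DMSO (0.01% v/v). PGE2 in the culture medium was measured by EIA against standards prepared in the same medium, read by optical density.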

[8] = 100 μM, read-out: RHUCX1 % Inh. at Dose
[9] = read-out: RHUCX2 % Inh. at Dose
[10] = read-out: RHUCX1 % Inh. at Dose
[11] = read-out: HWPX % Inhib. at Dose

T3 sequence (P23219 24-599): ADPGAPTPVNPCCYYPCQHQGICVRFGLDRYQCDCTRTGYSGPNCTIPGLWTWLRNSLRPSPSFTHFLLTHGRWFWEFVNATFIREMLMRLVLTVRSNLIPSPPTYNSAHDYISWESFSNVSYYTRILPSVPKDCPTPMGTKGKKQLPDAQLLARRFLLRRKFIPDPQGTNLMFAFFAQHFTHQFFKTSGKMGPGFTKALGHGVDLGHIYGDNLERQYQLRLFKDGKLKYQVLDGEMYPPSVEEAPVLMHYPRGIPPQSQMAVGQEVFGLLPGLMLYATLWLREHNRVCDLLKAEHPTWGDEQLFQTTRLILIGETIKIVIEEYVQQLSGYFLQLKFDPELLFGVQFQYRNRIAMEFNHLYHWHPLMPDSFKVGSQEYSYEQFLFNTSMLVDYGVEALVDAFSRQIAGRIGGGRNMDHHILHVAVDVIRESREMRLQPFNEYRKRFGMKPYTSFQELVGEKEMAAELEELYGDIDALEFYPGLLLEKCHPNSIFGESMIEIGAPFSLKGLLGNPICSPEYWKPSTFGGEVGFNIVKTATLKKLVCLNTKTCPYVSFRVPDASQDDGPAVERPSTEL
T1 sequence (P23219 24-599): as above

Structure (SMILES)	melting point	inhibition at 100 µM [4, 8]	IC50 [5]	inhibition at 1 µM [5, 9]	IC50 [7]	inhibition in vivo at 3 mg/kg [1]	inhibition in vivo at 10 mg/kg [2]	inhibition in vivo at 10 mg/kg [3]	also measured
CS(=O)(=O)c1ccc(-c2cnn(CC(F)(F)F)c(=O)c2-c2ccc(Cl)cc2)cc1 [Example 58, 2-(2,2,2-Trifluoroethyl)-4-(4-chlorophenyl)-5-[4-(methylsulfonyl)phenyl]-3(2H)-pyridazinone]	55 to 57 °C	0%	0.95 µM			67%	14%	42%	
CS(=O)(=O)c1ccc(-c2cnn(-c3ccc(F)cc3)c(=O)c2-c2ccc(F)cc2)cc1 [Example 62, 2,4-Bis(4-fluorophenyl)-5-[4-(methylsulfonyl)phenyl]-3(2H)-pyridazinone]	168 to 169 °C	6%	0.624 µM				21%	57%	
CCCc1ccc(-c2c(-c3ccc(S(C)(=O)=O)cc3)cnn(CC(F)(F)F)c2=O)cc1 [Example 66, 2-(2,2,2-Trifluoroethyl)-4-(4-n-proylphenl)-5-[4-(methylsulfonyl)phenyl]-3(2H)-pyridazinone]									CAP % Inhib. @ 3 mpk [1]: 0%; CPE % Inhib. @ 10 mpk [2]: 7%; CIP % Inhib. @ 10 mpk [3]: 59%
NS(=O)(=O)c1ccc(-c2cnn(CC(F)(F)F)c(=O)c2-c2ccc(F)cc2)cc1 [Example 68, 2-(2,2,2-Trifluoroethyl)-4-(4-fluorophenyl)-5-[4-(aminosulfonyl)phenyl]-3(2H)-pyridazinone]	193 to 195 °C	32%	0.297 µM				40.3%	64%	
NS(=O)(=O)c1ccc(-c2cnn(CC(F)(F)F)c(=O)c2-c2ccc(Cl)cc2)cc1 [Example 69, 2-(2,2,2-Trifluoroethyl)-4-(4-chlorophenyl)-5-[4-(aminosulfonyl)phenyl]-3(2H)-pyridazinone]	154 to 156 °C	2%		88%	0.02 µM	87%	45.5%	61%	IC50 [6]: 1.14 µM; CPE ED30 ([2]; oral): ED30 = 5.4; inhibition at 0.01 µM ([5]; 0.01 μM, read-out: RHUCX2 % Inh. at Dose): 30%; inhibition at 0.1 µM [5, 9]: 29%
CS(=O)(=O)c1ccc(-c2cnn(-c3ccccc3F)c(=O)c2-c2ccc(F)cc2)cc1 [Example 185, 2-(2-Fluorophenyl)-4-(4-fluorophenyl)-5-[4-(methlsulfonyl)phenyl]-3(2H)-pyridazinone]									CAP % Inhib. @ 3 mpk [1]: 53%; CPE % Inhib. @ 10 mpk [2]: 20%; CIP % Inhib. @ 10 mpk [3]: 59%

Now from value to compound, other results behind:

melting point	inhibition at 100 µM [4, 8]	IC50 [5]	inhibition at 1 µM [5, 9]	IC50 [7]	Structure (SMILES)	inhibition in vivo at 3 mg/kg [1]	inhibition in vivo at 10 mg/kg [2]	inhibition in vivo at 10 mg/kg [3]	also measured
154 to 155 °C	35%		39%	0.126 µM	C[S+]([O-])c1ccc(-c2cnn(CC(F)(F)F)c(=O)c2-c2ccc(Cl)cc2)cc1 (centres unmarked) [Example 77]		21%	51%	IC50 [6]: 8.8 µM; inhibition at 10 µM ([5]; 10 μM, read-out: RHUCX2 % Inh. at Dose): 82%
214 to 215 °C		0.064 µM			NS(=O)(=O)c1ccc(-c2cnn(CC(F)(F)F)c(=O)c2-c2ccc(Cl)c(F)c2)cc1 [Example 80, 2-(2,2,2-Trifluoroethyl)-4-(4-chloro-3-fluorophenyl)-5-[4-(aminosulfonyl)phenyl]-3(2H)-pyridazinone]	91%	28.5%	60%	inhibition at 1 µM ([4]; 1 μM, read-out: RHUCX1 % Inh. at Dose): 37%; inhibition at 10 µM [4, 10]: 41%
169 to 171 °C	15%		97%	0.025 µM	CS(=O)(=O)c1ccc(-c2cnn(C3CCCCC3)c(=O)c2-c2ccc(F)cc2)cc1 [Example 120, 2-Cyclohexyl-4-(4-fluorophenyl)-5-[4-(methylsulfonyl)phenyl]-3(2H)-pyridazinone]		11%	5%	inhibition at 1 µM [6, 11]: 58%; inhibition at 3 µM ([6]; 3 μM, read-out: HWPX % Inhib. at Dose): 74%; inhibition at 0.1 µM [5, 9]: 45%
		0.005 µM		0.041 µM	CS(=O)(=O)c1ccc(-c2cnn(C3CCCC3)c(=O)c2-c2ccc(F)cc2)cc1 [Example 121, 2-Cyclopentyl-4-(4-fluorphenyl)-5-[4-(methylsulfonyl)phenyl]-3(2H)-pyridazinone]				CPE % Inhib. @ 10 mpk [2]: 8%; CIP % Inhib. @ 10 mpk [3]: 19%; RHUCX1 % Inh. at Dose (μM) ([4]; 100 μM): 0 @ 100%
214 to 216 °C				0.03 µM	CS(=O)(=O)c1ccc(-c2cnn(-c3ccc(Cl)cc3)c(=O)c2-c2ccc(F)cc2)cc1 [Example 160, 2-(4-Chlorophenyl)-4-(4-fluorophenyl)-5-[4-(methylsulfonyl)phenyl]-3(2H)-pyridazinone]		35%	56%	IC50 [6]: 7.2 µM
219 to 224 °C	0%		85%	0.009 µM	Cc1ccc(-n2ncc(-c3ccc(S(C)(=O)=O)cc3)c(-c3ccc(F)cc3)c2=O)s1 [Example 168]		6%	0%	inhibition at 1 µM [6, 11]: 47%; inhibition at 0.1 µM [5, 9]: 93%
109 to 110 °C		0.07 µM			CS(=O)(=O)c1ccc(-c2cnn(-c3ccc(F)c(F)c3)c(=O)c2-c2ccc(F)cc2)cc1 [Example 182, 2-(3,4-Difluorophenyl)-4-(4-fluorophenyl)-5-[4-(methylsulfonyl)phenyl]-3(2H)-pyridazinone]	98%	27%	59%	IC50 ([4]; read-out: RHUCX1 IC50 (parenthetical value)): 5.01 µM
185 to 189 °C and 188 to 191 °C	82%		99%		NS(=O)(=O)c1ccc(-c2cnn(Cc3ccccc3)c(=O)c2-c2ccc(F)cc2)cc1 [Example 384, 2-Benzyl-4-(4-fluorophenyl)-5-[4-(aminosulfonyl)phenyl]-3(2H)-pyridazinone]	51%	15%	51%	inhibition at 10 µM [4, 10]: 49%; inhibition at 0.1 µM [5, 9]: 78%
